Literature values, collected in patent US20110252694A1, “COMPOSITIONS FOR DRIP FUMIGATION” (priority 2010, published 2011).

Experiments:
plant = conditions: when used in effective concentrations
[1] = test system: weeds, nematodes, and soil pathogens; conditions: compared with methyl bromide

Compound: CI [Methyl Iodide, methyl iodide]
- plant toxicity (plant): does not result in plant toxicity
- combating weeds, nematodes, and soil pathogens [1]: equal to or better than methyl bromide
